Where two headings read alike, the source gives them in different places.
Experiments:
[1] = target: EGFR del19/T790M/C797S (Homo sapiens, UniProt P00533, C797S/DEL746-750/T790M); test: Biochemical EGFR kinase assay (Lance Ultra TR-FRET), triple mutant del19/T790M/C797S
In short: (§1)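 Step 1: compound in kinase buffer, 0.003–10 μM. Step 2: kinase reaction 1 h at room temperature. Step 4: TR-FRET read at 615/665 nm; IC50 calculated.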

[2] = target: EGFR del19/C797S (Homo sapiens, UniProt P00533, C797S/DEL746-750); test: Biochemical EGFR kinase assay (Lance Ultra TR-FRET), double mutant del19/C797S
In short: as §1

[3] = target: EGFR L858R/C797S (Homo sapiens, UniProt P00533, C797S/L858R); test: Biochemical EGFR kinase assay (Lance Ultra TR-FRET), double mutant L858R/C797S
In short: as §1

[4] = target: EGFR L858R/T790M/C797S (Homo sapiens, UniProt P00533, C797S/L858R/T790M); test: Biochemical EGFR kinase assay (Lance Ultra TR-FRET), triple mutant L858R/T790M/C797S
In short: as §1

[5] = target: EGFR wildtype (WT) (Homo sapiens, UniProt P00533); test: Biochemical EGFR kinase assay (Lance Ultra TR-FRET), wildtype
In short: as §1

[6] = Km ATP, read-out: IC50 del19/T790M/C797S (nM) Km ATP
[7] = Km ATP, read-out: IC50 del19/C797S (nM) Km ATP
[8] = Km ATP, read-out: IC50 L858R/C797S (nM) Km ATP
[9] = Km ATP, read-out: IC50 L858R/T790M/C797S (nM) Km ATP
[10] = Km ATP, read-out: IC50 WT (nM) Km ATP
[11] = IC50 del19/T790M/C797S, 100 μM ATP
[12] = Km ATP, read-out: IC50 del19/T790M/C797S, Km ATP
[13] = Km ATP, read-out: IC50 del19/C797S, Km ATP
[14] = Km ATP, read-out: IC50 L858R/C797S, Km ATP
[15] = IC50 L858R/T790M/C797S, 100 μM ATP
[16] = Km ATP, read-out: IC50 L858R/T790M/C797S, Km ATP
[17] = Km ATP, read-out: IC50 WT, Km ATP
[18] = IC50 del19/T790M/C797S (nM) 100 μM ATP, 100 μM ATP
[19] = IC50 del19/C797S (nM) 100 μM ATP, 100 μM ATP
[20] = IC50 L858R/C797S (nM) 100 μM ATP, 100 μM ATP
[21] = IC50 L858R/T790M/C797S (nM) 100 μM ATP, 100 μM ATP
[22] = IC50 WT (nM) 100 μM ATP, 100 μM ATP

EGFR del19/T790M/C797S, sequence (P00533 with tags, fused parts or gaps DEL746-750/T790M/C797S): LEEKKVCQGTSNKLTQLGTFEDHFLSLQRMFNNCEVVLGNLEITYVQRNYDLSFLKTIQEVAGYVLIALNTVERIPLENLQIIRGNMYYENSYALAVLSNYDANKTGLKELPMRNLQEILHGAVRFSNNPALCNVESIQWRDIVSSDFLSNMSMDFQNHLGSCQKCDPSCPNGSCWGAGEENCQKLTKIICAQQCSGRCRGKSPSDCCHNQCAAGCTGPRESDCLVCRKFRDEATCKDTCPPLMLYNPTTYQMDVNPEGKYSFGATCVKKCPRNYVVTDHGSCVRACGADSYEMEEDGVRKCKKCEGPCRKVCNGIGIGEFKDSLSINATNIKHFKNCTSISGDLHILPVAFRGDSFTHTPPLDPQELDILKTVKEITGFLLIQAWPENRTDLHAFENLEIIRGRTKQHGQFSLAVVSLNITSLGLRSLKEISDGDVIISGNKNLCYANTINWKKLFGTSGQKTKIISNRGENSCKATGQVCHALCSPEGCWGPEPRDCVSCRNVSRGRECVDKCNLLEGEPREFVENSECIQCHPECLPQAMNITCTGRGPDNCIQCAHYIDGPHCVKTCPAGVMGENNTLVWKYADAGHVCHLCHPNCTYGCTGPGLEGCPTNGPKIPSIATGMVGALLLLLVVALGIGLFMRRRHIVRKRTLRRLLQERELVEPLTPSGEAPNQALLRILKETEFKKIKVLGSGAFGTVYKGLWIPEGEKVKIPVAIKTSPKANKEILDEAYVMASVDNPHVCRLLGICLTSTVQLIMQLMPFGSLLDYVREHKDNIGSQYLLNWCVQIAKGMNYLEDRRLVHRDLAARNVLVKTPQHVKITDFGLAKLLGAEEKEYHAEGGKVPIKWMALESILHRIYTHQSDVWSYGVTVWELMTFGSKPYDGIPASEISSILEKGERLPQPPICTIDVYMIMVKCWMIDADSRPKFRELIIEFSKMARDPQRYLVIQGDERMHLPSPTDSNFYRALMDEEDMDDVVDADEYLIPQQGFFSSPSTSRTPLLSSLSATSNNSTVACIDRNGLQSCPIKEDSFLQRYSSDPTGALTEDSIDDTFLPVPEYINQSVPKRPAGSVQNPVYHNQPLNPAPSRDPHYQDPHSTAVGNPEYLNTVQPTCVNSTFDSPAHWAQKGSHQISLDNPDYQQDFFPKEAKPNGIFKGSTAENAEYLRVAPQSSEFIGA
EGFR wildtype (WT), sequence (P00533 25-1210): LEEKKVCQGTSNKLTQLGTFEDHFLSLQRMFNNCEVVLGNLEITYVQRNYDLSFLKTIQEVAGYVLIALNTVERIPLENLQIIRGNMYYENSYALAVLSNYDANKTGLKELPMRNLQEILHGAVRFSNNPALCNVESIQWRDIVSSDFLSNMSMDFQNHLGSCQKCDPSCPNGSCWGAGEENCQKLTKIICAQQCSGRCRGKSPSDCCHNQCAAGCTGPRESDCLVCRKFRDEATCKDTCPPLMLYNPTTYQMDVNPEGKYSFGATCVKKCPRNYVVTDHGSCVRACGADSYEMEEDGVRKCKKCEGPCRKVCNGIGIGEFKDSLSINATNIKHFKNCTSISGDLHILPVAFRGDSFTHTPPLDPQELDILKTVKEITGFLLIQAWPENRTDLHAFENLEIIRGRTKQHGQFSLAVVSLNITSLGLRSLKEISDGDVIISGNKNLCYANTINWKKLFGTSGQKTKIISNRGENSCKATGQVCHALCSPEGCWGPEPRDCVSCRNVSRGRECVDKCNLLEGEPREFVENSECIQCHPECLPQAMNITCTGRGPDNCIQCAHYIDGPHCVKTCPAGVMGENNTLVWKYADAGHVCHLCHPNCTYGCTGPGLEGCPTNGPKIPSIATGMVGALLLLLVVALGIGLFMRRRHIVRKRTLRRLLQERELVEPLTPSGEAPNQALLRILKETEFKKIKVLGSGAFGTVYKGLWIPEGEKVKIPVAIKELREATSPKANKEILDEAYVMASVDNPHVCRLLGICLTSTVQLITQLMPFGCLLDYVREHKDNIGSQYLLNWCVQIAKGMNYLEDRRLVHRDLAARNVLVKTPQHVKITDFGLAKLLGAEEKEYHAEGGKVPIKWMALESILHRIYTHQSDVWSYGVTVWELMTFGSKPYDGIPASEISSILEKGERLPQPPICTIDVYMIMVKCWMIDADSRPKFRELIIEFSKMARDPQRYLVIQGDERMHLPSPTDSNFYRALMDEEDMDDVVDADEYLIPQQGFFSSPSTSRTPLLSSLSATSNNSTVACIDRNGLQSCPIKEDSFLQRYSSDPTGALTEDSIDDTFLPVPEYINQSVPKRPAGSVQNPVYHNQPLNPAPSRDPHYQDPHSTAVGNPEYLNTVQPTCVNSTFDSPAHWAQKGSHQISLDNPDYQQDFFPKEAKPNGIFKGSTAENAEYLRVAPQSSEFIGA
EGFR L858R/C797S, sequence (P00533 25-1210 C797S/L858R): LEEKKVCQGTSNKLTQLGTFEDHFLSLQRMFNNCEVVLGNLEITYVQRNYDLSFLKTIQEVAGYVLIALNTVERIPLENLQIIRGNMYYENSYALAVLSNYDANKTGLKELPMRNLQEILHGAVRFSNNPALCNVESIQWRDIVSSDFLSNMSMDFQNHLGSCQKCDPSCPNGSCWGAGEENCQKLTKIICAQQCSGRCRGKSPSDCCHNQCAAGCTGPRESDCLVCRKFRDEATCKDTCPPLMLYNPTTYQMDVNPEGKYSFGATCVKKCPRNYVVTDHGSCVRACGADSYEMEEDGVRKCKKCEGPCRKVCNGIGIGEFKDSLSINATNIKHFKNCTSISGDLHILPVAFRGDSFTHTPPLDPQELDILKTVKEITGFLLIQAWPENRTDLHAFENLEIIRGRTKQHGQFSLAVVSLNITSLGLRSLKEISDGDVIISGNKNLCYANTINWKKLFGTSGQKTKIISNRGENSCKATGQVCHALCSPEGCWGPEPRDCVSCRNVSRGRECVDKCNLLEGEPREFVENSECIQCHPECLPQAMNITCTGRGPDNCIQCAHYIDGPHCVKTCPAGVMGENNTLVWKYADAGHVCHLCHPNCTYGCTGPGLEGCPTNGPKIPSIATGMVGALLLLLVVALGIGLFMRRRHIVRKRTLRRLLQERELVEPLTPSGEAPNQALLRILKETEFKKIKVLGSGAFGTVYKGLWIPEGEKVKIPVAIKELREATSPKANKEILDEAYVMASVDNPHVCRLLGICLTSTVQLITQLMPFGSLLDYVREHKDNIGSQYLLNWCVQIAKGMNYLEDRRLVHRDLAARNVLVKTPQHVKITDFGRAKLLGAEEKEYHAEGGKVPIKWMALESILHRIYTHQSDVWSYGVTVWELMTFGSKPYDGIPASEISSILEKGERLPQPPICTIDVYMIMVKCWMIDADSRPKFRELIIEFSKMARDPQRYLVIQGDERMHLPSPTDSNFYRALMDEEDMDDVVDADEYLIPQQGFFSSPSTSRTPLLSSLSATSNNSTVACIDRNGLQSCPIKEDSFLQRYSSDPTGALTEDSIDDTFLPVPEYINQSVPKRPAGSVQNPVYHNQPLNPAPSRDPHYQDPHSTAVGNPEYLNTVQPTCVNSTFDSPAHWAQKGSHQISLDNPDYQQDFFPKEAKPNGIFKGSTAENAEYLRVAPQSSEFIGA
EGFR del19/C797S, sequence (P00533 with tags, fused parts or gaps DEL746-750/C797S): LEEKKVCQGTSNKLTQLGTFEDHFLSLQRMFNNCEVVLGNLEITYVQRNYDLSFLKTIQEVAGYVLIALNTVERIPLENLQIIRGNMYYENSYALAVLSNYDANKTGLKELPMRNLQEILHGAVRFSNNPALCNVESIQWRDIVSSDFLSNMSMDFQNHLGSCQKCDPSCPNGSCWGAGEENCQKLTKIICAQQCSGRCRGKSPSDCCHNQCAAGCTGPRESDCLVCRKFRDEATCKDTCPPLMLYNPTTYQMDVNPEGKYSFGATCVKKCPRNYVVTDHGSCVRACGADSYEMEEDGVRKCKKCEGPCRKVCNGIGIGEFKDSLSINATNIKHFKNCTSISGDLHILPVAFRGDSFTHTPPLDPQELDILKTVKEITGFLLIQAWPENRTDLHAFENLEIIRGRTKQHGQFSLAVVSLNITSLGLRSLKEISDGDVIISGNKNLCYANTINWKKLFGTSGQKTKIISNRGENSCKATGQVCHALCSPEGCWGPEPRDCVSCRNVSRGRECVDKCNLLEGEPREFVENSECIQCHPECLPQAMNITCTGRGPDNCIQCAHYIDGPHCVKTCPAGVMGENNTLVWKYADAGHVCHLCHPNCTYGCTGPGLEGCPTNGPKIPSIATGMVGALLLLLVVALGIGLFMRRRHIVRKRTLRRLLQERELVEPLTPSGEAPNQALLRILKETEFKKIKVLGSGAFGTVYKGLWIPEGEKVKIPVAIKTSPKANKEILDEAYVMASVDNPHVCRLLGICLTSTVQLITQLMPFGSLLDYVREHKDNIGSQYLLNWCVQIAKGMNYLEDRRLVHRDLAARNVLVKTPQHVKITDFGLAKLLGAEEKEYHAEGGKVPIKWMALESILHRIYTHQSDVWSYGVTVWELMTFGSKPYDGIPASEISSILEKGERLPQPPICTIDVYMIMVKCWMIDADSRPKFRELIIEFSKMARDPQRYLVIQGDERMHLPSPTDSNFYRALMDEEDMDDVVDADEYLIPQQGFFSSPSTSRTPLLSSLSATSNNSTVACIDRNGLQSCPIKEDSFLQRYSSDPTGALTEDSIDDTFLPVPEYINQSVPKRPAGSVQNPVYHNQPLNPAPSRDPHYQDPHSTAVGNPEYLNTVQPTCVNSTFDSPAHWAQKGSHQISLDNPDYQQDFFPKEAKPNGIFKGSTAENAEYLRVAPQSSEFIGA

SMILES | IC50 [1, 6] | IC50 [2, 7] | IC50 [3, 8] | IC50 [4, 9] | IC50 [5, 10] | IC50 [1, 18] | IC50 [2, 19] | IC50 [3, 20] | IC50 [4, 21] | IC50 [5, 22] | also measured
C=CCCS(=O)(=O)n1cc(-c2nccc(Nc3cc(N[C@H]4CC[C@@](C)(O)CC4)c(-c4ccn(C(F)F)n4)cn3)n2)cn1 [Example 117, (1s,4s)-4-((2-((2-(1-(But-3-en-1-ylsulfonyl)-1H-pyrazol-4-yl)pyrimidin-4-yl)amino)-5-(1-(difluoromethyl)-1H-pyrazol-3-yl)pyridin-4-yl)amino)-1-methylcyclohexan-1-ol] | 0.5 nM | 0.8 nM | 0.2 nM | 0.5 nM | 1.6 nM |  |  |  |  |  | 
CC1(O)CCC(Nc2cc(Nc3ccnc(N4CC(O)C(F)(F)C4)n3)ncc2-c2ccn(C(F)F)n2)CC1 (centres unmarked) [Example 349, 1-(4-((5-(1-(Difluoromethyl)-1H-pyrazol-3-yl)-4-(((1s,4s)-4-hydroxy-4-methylcyclohexyl)amino)pyridin-2-yl)amino)pyrimidin-2-yl)-4,4-difluoropyrrolidin-3-ol] |  |  |  |  |  |  |  |  |  |  | IC50 [1, 11]: 1 nM; IC50 [1, 12]: 2.4 nM; IC50 ([2]; IC50 del19/C797S, 100 μM ATP): 276 nM; IC50 [2, 13]: 53.7 nM; IC50 ([3]; IC50 L858R/C797S, 100 μM ATP): 304 nM; IC50 [3, 14]: 77.2 nM; IC50 [4, 15]: 2.8 nM; IC50 [4, 16]: 0.3 nM; IC50 ([5]; IC50 WT, 100 μM ATP): > 10000 nM; IC50 [5, 17]: 189 nM
Cn1ccc(-c2cnc(Nc3ccnc(-c4cnn(S(=O)(=O)C5CC5)c4)n3)cc2N[C@H]2CC[C@](O)(CO)CC2)n1 [Example 221, (1s,4s)-4-((2-((2-(1-(Cyclopropylsulfonyl)-1H-pyrazol-4-yl)pyrimidin-4-yl)amino)-5-(1-methyl-1H-pyrazol-3-yl)pyridin-4-yl)amino)-1-(hydroxymethyl)cyclohexan-1-ol] | 0.3 nM | 0.4 nM | 1 nM | 0.2 nM | 4.9 nM | 0.3 nM | 0.5 nM | 4.9 nM | 0.2 nM | 1510 nM | 
C[C@]1(O)CC[C@@H](Nc2cc(Nc3ccnc(-c4cnn(CC(F)F)c4)n3)ncc2-c2ccn(C(F)F)n2)CC1 [Example 143, (1s,4s)-4-((2-((2-(1-(2,2-Difluoroethyl)-1H-pyrazol-4-yl)pyrimidin-4-yl)amino)-5-(1-(difluoromethyl)-1H-pyrazol-3-yl)pyridin-4-yl)amino)-1-methylcyclohexan-1-ol] | 0.1 nM | 2.9 nM | 0.9 nM | 0.1 nM | 62.7 nM | 0.1 nM | 2.7 nM | 11.6 nM | 0.2 nM | > 10000 nM | 
Cn1nc(-c2cnc(Nc3nc(-c4cnn(S(=O)(=O)C5CC5)c4)ncc3F)cc2N[C@H]2CC[C@@](C)(O)CC2)cc1C(F)(F)F [Example 328, (1s,4s)-4-((2-((2-(1-(Cyclopropylsulfonyl)-1H-pyrazol-4-yl)-5-fluoropyrimidin-4-yl)amino)-5-(1-methyl-5-(trifluoromethyl)-1H-pyrazol-3-yl)pyridin-4-yl)amino)-1-methylcyclohexan-1-ol] | 4.8 nM | 9.3 nM | 19.5 nM | 2 nM | 110 nM | 8 nM | 11.5 nM | 378 nM | 6.5 nM | > 10000 nM | 
CN1CCC(n2ccc(-c3cnc(Nc4ccnc(-c5cnn(S(=O)(=O)C6CC6)c5)n4)cc3N[C@H]3CC[C@@](C)(O)CC3)n2)CC1 [Example 287, (1s,4s)-4-((2-((2-(1-(Cyclopropylsulfonyl)-1H-pyrazol-4-yl)pyrimidin-4-yl)amino)-5-(1-(1-methylpiperidin-4-yl)-1H-pyrazol-3-yl)pyridin-4-yl)amino)-1-methylcyclohexan-1-ol] | 0.2 nM | 0.3 nM | 0.1 nM | 0.1 nM | 0.3 nM |  |  |  |  |  | 
CC(C)(O)[C@H]1CC[C@@H](Nc2cc(Nc3ccnc(-c4cnn(S(=O)(=O)C5CC5)c4)n3)ncc2-c2cc3n(n2)CCCC3)CC1 [Example 61, 2-((1s,4s)-4-((2-((2-(1-(Cyclopropylsulfonyl)-1H-pyrazol-4-yl)pyrimidin-4-yl)amino)-5-(4,5,6,7-tetrahydropyrazolo[1,5-a]pyridin-2-yl)pyridin-4-yl)amino)cyclohexyl)propan-2-ol] | 2 nM | 1.9 nM | 2.9 nM | 0.8 nM | 7.9 nM | 4.3 nM | 6.2 nM | 8.8 nM | 2.4 nM | 2900 nM | 
COCn1ccc(-c2cnc(Nc3ccnc(-c4cnn(S(=O)(=O)C5CC5)c4)n3)cc2N[C@H]2CC[C@@H](C(C)(C)O)CC2)n1 [Example 299, 2-((1s,4s)-4-((2-((2-(1-(Cyclopropylsulfonyl)-1H-pyrazol-4-yl)pyrimidin-4-yl)amino)-5-(1-(methoxymethyl)-1H-pyrazol-3-yl)pyridin-4-yl)amino)cyclohexyl)propan-2-ol] | 1.1 nM | 4.1 nM | 0.5 nM | 0.3 nM | 5 nM |  |  |  |  |  | 
Cn1ccc(-c2cnc(Nc3ccnc(-c4cnn(S(=O)(=O)C5CC5)c4)n3)cc2N[C@H]2CC[C@](O)(C(F)F)CC2)n1 [Example 231, (1s,4s)-4-((2-((2-(1-(Cyclopropylsulfonyl)-1H-pyrazol-4-yl)pyrimidin-4-yl)amino)-5-(1-methyl-1H-pyrazol-3-yl)pyridin-4-yl)amino)-1-(difluoromethyl)cyclohexan-1-ol] | 0.3 nM | 2.4 nM | 3.1 nM | 0.3 nM | 37.3 nM | 0.5 nM | 2 nM | 11.5 nM | 0.7 nM | > 10000 nM | 
O=S(=O)(C1CC1)n1cc(-c2nccc(Nc3cc(OC4CCC(OC(F)F)CC4)c(-c4cnn(C(F)F)c4)cn3)n2)cn1 (centres unmarked) [Example 70, 2-(1-(Cyclopropylsulfonyl)-1H-pyrazol-4-yl)-N-(4-((4-(difluoromethoxy)cyclohexyl)oxy)-5-(1-(difluoromethyl)-1H-pyrazol-4-yl)pyridin-2-yl)pyrimidin-4-amine] | 10.2 nM | 202 nM | 57 nM | 3.8 nM | 1740 nM | 9.7 nM | 190 nM | 1490 nM | 13.5 nM | > 10000 nM | 
CC1(O)CCC(Nc2cc(Nc3ccnc(N4CC(CO)C(C)(C)C4)n3)ncc2-c2ccn(C(F)F)n2)CC1 (centres unmarked) [Example 347, (1s,4s)-4-((5-(1-(Difluoromethyl)-1H-pyrazol-3-yl)-2-((2-(4-(hydroxymethyl)-3,3-dimethylpyrrolidin-1-yl)pyrimidin-4-yl)amino)pyridin-4-yl)amino)-1-methylcyclohexan-1-ol] |  |  |  |  |  |  |  |  |  |  | IC50 [1, 11]: 3.1 nM; IC50 [1, 12]: 1.9 nM; IC50 ([2]; IC50 del19/C797S, 100 μM ATP): 329 nM; IC50 [2, 13]: 99 nM; IC50 ([3]; IC50 L858R/C797S, 100 μM ATP): 449 nM; IC50 [3, 14]: 48.2 nM; IC50 [4, 15]: 1.9 nM; IC50 [4, 16]: 0.7 nM; IC50 ([5]; IC50 WT, 100 μM ATP): > 10000 nM; IC50 [5, 17]: 400 nM
CN[C@H]1CC[C@@H](Nc2cc(Nc3ccnc(-c4cnn(S(=O)(=O)C5CC5)c4)n3)ncc2-c2ccn(C)n2)CC1 [Example 88, N^2-(2-(1-(Cyclopropylsulfonyl)-1H-pyrazol-4-yl)pyrimidin-4-yl)-5-(1-methyl-1H-pyrazol-3-yl)-N^4-((1s,4s)-4-(methylamino)cyclohexyl)pyridine-2,4-diamine] | 0.2 nM | 0.5 nM | 0.3 nM | 0.1 nM | 3.2 nM |  |  |  |  |  | IC50 ([1]; read-out: IC50 del19/T790M/C797S (nM) 100 μM ATP, 100 μM ATP): 0.3 nM; IC50 ([2]; read-out: IC50 del19/C797S (nM) 100 μM ATP, 100 μM ATP): 1 nM; IC50 ([3]; read-out: IC50 L858R/C797S (nM) 100 μM ATP, 100 μM ATP): 3.1 nM; IC50 ([4]; read-out: IC50 L858R/T790M/C797S (nM) 100 μM ATP, 100 μM ATP): 0.3 nM; IC50 ([5]; read-out: IC50 WT (nM) 100 μM ATP, 100 μM ATP): 1980 nM
O=S(=O)(C1CC1)n1cc(-c2nccc(Nc3cc(NC4CCC(O)(C5CC5)CC4)c(-c4ccn(C(F)F)n4)cn3)n2)cn1 (centres unmarked) [Example 110, 1-Cyclopropyl-4-((2-((2-(1-(cyclopropylsulfonyl)-1H-pyrazol-4-yl)pyrimidin-4-yl)amino)-5-(1-(difluoromethyl)-1H-pyrazol-3-yl)pyridin-4-yl)amino)cyclohexan-1-ol] | 2.5 nM | 24.7 nM | 23.7 nM | 1.9 nM | 34.5 nM |  |  |  |  |  | 
